Like-named read-outs stand apart in the source and are kept apart here. Starred links: 1 amine or outer side, 2 acyl side, 3 side chain; linkers in the order of their positions; H or OH if unused. Non-standard residues stand in square brackets, D forms with d. Residues, ends and D or L forms follow the SMILES beside them. X26 = C[C@H](CN1CCn2c(nnc2C(F)(F)F)C1)[C@@H](C(=O)[*:2])N(C)[*:1]; X74 = C[C@H](CCN1CCN2C(=O)OC[C@@H]2C1)[C@@H](C(=O)[*:2])N(C)[*:1]; X45 = C[C@H](CCC(=O)N1CC2CCC(C1)O2)[C@@H](C(=O)[*:2])N(C)[*:1]; X54 = CCOC(=O)N1CCN(C[C@@H](C)[C@@H](C(=O)[*:2])N(C)[*:1])CC1; X30 = C[C@H](CN1CCCOCC1)[C@@H](C(=O)[*:2])N(C)[*:1]; MeBmt = C/C=C/C[C@@H](C)[C@@H](O)[C@H](NC)C(=O)O; NMeL = CN[C@@H](CC(C)C)C(=O)O; NMeV = CN[C@H](C(=O)O)C(C)C; dNMeA = CN[C@H](C)C(=O)O; Abu = CC[C@H](N)C(=O)O
How the values were obtained:
cyclophilin B (CypB) = cyclophilin B (CypB) (Homo sapiens (Human), UniProt P23284); assay: Inhibitor binding to cyclophilin proteins by SPR, CypB; parameters: unit not given here; settings: 1:1 binding model
In short: (§1)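 Mono-biotinylated avi-tagged cyclophilins were captured on a Biotin CAPture chip and compound injected by single-cycle kinetics in 10 mM HEPES pH 7.4, 150 mM NaCl, 0.05% P20, 3% DMSO. Contact 1 min per concentration at 50 μL/min, 10 min final dissociation; 1:1 model fit gave kon, koff, KD.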

[1] = biological target: organic anion transporting polypeptide 1B1 (OATP1B1) (Homo sapiens (Human), UniProt Q9Y6L6); assay: OATP assay in CHO-OATP1B1 cells;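 also: inhibition of probe substrate uptake into the cells, ten minutes exposure, accumulated substrate read by fluorescence once cells were lysed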
[2] = tested on: genotype 1b subgenomic HCV replicon in Huh7.5 cells; assay type: cell-based, hepatitis C virus; settings: read-out: RPLN-1b IC50
In short: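 Huh7.5 cells carrying genotype 1b subgenomic HCV replicon with renilla luciferase-neomycin reporter, in phenol red-free DMEM without G418. Luciferase measured after 72 h compound exposure relative to DMSO-treated cells; cytotoxicity (CC50) by Cell Titer-Glo.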

[3] = tested on: peripheral blood mononuclear cells (PBMC); assay: Anti-proliferative or immunosuppressive activity, BrdU incorporation in PHA-stimulated PBMC; assay type: cell-based; settings: PHA 3 μg/ml, 60 hour compound treatment; read-out: EMV PBMC IC50
In short: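 Fresh PBMCs from two donors, 30,000 per well in X-VIVO 15 medium, stimulated with 3 μg/ml PHA to drive T-cell proliferation. Proliferation measured as BrdU incorporation into DNA by BrdU ELISA.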

CypF = CypF (Homo sapiens (Human), UniProt P30405); assay: Inhibitor binding to cyclophilin proteins by SPR, CypF; settings: 1:1 binding model
In short: as §1

cyclophilin A (CypA) = cyclophilin A (CypA) (Homo sapiens (Human), UniProt P62937); assay: Inhibitor binding to cyclophilin proteins by SPR, CypA; parameters: unit not given here; settings: 1:1 binding model;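 also: Single-cycle kinetics on a Biacore T200, compound injected at several concentrations for 1 min each at 50 µL/min, then 10 min dissociation, in HEPES pH 7.4 buffer with 3% DMSO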
[4] = genotype 1b replicon, 72 h incubation

Sequence of cyclophilin A (CypA) (P62937 whole entry): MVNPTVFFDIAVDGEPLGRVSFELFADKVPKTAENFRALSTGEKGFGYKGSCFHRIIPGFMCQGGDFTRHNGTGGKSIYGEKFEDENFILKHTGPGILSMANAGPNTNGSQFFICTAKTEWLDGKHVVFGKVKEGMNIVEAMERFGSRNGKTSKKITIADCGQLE
Sequence of cyclophilin B (CypB) (P23284 34-216): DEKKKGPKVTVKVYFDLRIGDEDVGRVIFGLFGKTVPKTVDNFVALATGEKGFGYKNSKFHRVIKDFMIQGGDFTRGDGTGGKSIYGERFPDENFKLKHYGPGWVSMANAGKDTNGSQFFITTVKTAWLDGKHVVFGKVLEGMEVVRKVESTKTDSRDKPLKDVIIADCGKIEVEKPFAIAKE
Sequence of organic anion transporting polypeptide 1B1 (OATP1B1) (Q9Y6L6 whole entry): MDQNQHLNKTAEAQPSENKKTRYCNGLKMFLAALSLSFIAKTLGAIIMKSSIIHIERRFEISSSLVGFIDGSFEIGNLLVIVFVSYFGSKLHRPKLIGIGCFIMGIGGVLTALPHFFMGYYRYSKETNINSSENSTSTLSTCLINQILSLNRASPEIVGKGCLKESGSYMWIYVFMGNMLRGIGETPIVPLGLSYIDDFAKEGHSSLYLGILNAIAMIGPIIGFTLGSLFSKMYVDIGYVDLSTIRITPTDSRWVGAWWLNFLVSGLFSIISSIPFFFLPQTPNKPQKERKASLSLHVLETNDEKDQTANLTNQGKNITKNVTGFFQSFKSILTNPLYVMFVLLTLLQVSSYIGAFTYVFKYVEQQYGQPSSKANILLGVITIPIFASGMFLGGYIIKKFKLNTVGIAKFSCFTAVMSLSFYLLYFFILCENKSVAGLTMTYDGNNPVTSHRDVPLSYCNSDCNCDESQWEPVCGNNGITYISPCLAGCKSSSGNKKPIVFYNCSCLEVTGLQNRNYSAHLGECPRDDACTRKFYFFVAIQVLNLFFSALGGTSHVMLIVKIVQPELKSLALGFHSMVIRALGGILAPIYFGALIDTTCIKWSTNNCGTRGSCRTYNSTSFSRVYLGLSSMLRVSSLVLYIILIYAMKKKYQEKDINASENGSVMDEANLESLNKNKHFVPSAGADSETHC
Sequence of CypF (P30405 30-207): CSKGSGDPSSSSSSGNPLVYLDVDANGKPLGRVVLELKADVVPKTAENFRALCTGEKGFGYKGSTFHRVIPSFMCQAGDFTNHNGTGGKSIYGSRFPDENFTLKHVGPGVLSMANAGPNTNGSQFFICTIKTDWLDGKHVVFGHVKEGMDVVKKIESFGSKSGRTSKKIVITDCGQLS

C/C=C/C[C@@H](C)[C@@H](O)[C@H]1C(=O)N[C@@H](CC)C(=O)N(C)[C@H](C)C(=O)N(C)[C@@H]([C@H](C)CN2CCN(C(=O)OCC)CC2)C(=O)N[C@@H](C(C)C)C(=O)N(C)[C@@H](CC(C)C)C(=O)N[C@@H](C)C(=O)N[C@H](C)C(=O)N(C)[C@@H](CC(C)C)C(=O)N(C)[C@@H](CC(C)C)C(=O)N(C)[C@@H](C(C)C)C(=O)N1C [Compound 2.5.31, 3-[D-Ala]-4-[(2S,3R)-4-(4-(ethoxycarbonyl)piperazin-1-yl)-3-methyl-2-(methylamino)butanoyl]-cyclosporin] (cyclo(A[dA][NMeL][NMeL][NMeV][MeBmt][Abu][dNMeA][X54]V[NMeL]))
CypB Kd (cyclophilin B (CypB)): 1.1 | IC50 [1]: 2100 nM | IC50 [2, 4]: 55 nM | IC50 [3]: 18900 nM | CypF Kd (CypF): 1.3 nM | CypA Kd (cyclophilin A (CypA)): 2.5

C/C=C/C[C@@H](C)[C@@H](O)[C@H]1C(=O)N[C@@H](CC)C(=O)N(C)[C@H](C)C(=O)N(C)[C@@H]([C@H](C)CN2CCn3c(nnc3C(F)(F)F)C2)C(=O)N[C@@H](C(C)C)C(=O)N(C)[C@@H](CC(C)C)C(=O)N[C@@H](C)C(=O)N[C@H](C)C(=O)N(C)[C@@H](CC(C)C)C(=O)N(C)[C@@H](CC(C)C)C(=O)N(C)[C@@H](C(C)C)C(=O)N1C [Compound 2.5.19, 3-[D-Ala]-4-[(2S,3R)-3-methyl-2-(methylamino)-4-(3-(trifluoromethyl)-5,6-dihydro-[1,2,4]triazolo[4,3-a]pyrazin-7(8H)-yl)butanoyl]-cyclosporin] (cyclo(A[dA][NMeL][NMeL][NMeV][MeBmt][Abu][dNMeA][X26]V[NMeL]))
CypB Kd (cyclophilin B (CypB)): 1.2 | IC50 [1]: 1000 nM | IC50 [2, 4]: 75 nM | IC50 [3]: 12600 nM | CypF Kd (CypF): 1.6 nM | CypA Kd (cyclophilin A (CypA)): 2.8

C/C=C/C[C@@H](C)[C@@H](O)[C@H]1C(=O)N[C@@H](CC)C(=O)N(C)[C@H](C)C(=O)N(C)[C@@H]([C@H](C)CN2CCCOCC2)C(=O)N[C@@H](C(C)C)C(=O)N(C)[C@@H](CC(C)C)C(=O)N[C@@H](C)C(=O)N[C@H](C)C(=O)N(C)[C@@H](CC(C)C)C(=O)N(C)[C@@H](CC(C)C)C(=O)N(C)[C@@H](C(C)C)C(=O)N1C [Compound 2.5.21, 3-[D-Ala]-4-[(2S,3R)-3-methyl-2-(methylamino)-4-(1,4-oxazepan-4-yl)butanoyl]-cyclosporin] (cyclo(A[dA][NMeL][NMeL][NMeV][MeBmt][Abu][dNMeA][X30]V[NMeL]))
CypB Kd (cyclophilin B (CypB)): 0.9 | IC50 [1]: 1700 nM | IC50 [2, 4]: 37 nM | IC50 [3]: 4500 nM | CypF Kd (CypF): 0.8 nM | CypA Kd (cyclophilin A (CypA)): 1.9

C/C=C/C[C@@H](C)[C@@H](O)[C@H]1C(=O)N[C@@H](CC)C(=O)N(C)[C@H](C(C)C)C(=O)N(C)C([C@H](C)COC)C(=O)N[C@@H](C(C)C)C(=O)N(C)[C@@H](CC(C)C)C(=O)N[C@@H](C)C(=O)N[C@H](C)C(=O)N(C)[C@@H](CC(C)C)C(=O)N(C)[C@@H](CC(C)C)C(=O)N(C)[C@@H](C(C)C)C(=O)N1C (stereo in doubt) [Compound 3.3, 3-[(R)-3-methyl-2-(methylamino)butanoyl]-4-[(2S,3S)-4-methoxy-3-methyl-2-(methylamino)butanoyl]-cyclosporin]
CypB Kd (cyclophilin B (CypB)): 7.4 | IC50 [1]: 2000 nM | IC50 [2]: 100 nM | IC50 [3]: 13200 nM | CypF Kd (CypF): 8.2 nM | CypA Kd (cyclophilin A (CypA)): 13.7

C/C=C/C[C@@H](C)[C@@H](O)[C@H]1C(=O)N[C@@H](CC)C(=O)N(C)[C@H](C)C(=O)N(C)[C@@H]([C@H](C)CCN2CCN3C(=O)OC[C@@H]3C2)C(=O)N[C@@H](C(C)C)C(=O)N(C)[C@@H](CC(C)C)C(=O)N[C@@H](C)C(=O)N[C@H](C)C(=O)N(C)[C@@H](CC(C)C)C(=O)N(C)[C@@H](CC(C)C)C(=O)N(C)[C@@H](C(C)C)C(=O)N1C [Compound 2.18.9, 3-[D-Ala]-4-[(2S,3R)-3-methyl-2-(methylamino)-5-((S)-3-oxotetrahydro-1H-oxazolo[3,4-a]pyrazin-7(3H)-yl)pentanoyl]-cyclosporin] (cyclo(A[dA][NMeL][NMeL][NMeV][MeBmt][Abu][dNMeA][X74]V[NMeL]))
CypB Kd (cyclophilin B (CypB)): 2.7 | IC50 [1]: 2800 nM | IC50 [2, 4]: 170 nM | IC50 [3]: 9200 nM | CypF Kd (CypF): 1 nM | CypA Kd (cyclophilin A (CypA)): 1.8

C/C=C/C[C@@H](C)[C@@H](O)[C@H]1C(=O)N[C@@H](CC)C(=O)N(C)[C@H](C)C(=O)N(C)[C@@H]([C@H](C)CCC(=O)N2CC3CCC(C2)O3)C(=O)N[C@@H](C(C)C)C(=O)N(C)[C@@H](CC(C)C)C(=O)N[C@@H](C)C(=O)N[C@H](C)C(=O)N(C)[C@@H](CC(C)C)C(=O)N(C)[C@@H](CC(C)C)C(=O)N(C)[C@@H](C(C)C)C(=O)N1C [Compound 2.14.2, 3-[D-Ala]-4-[(2S,3R)-6-(8-oxa-3-azabicyclo[3.2.1]octan-3-yl)-3-methyl-2-(methylamino)-6-oxohexanoyl]-cyclosporin] (cyclo(A[dA][NMeL][NMeL][NMeV][MeBmt][Abu][dNMeA][X45]V[NMeL]))
CypB Kd (cyclophilin B (CypB)): 0.9 | IC50 [1]: 1900 nM | IC50 [2, 4]: 75 nM | IC50 [3]: 6700 nM | CypF Kd (CypF): 1 nM | CypA Kd (cyclophilin A (CypA)): 2.4
